Results reported in US10328051B2, “Proline or proline derivatives for the treatment of dementia” (priority 2014, dated 2019).
“Also recorded” adds a separate entry of the source.

Tests used:
[1] = test system: Alpha Glutathione S-Transferase (α-GST); assay: Measurement of α-Glutathione-S-Transferase following multiple dose administration of CHP (Study 0202-71); type: in vivo, human; settings: healthy volunteers
Description: Example 6—Measurement of α-Glutathione-S-Transferase Following Multiple Dose Administration of CHP (Study 0202-71)—(FIG. 7)
Study title: Measurement of α-Glutathione-S-Transferase following multiple dose administration of CHP (Study 0202-71)
12 healthy Caucasian males were recruited (age: 18-45 years). Multiple doses of CHP were orally administered: • 4×2.0 g CHP per day, for 14 consecutive days (total daily dose=8.0 g CHP) • 4×3.0 g CHP per day, for 14 consecutive days (total daily dose=12.0 g CHP)
To determine the effect of CHP on the blood concentration of Alpha Glutathione S-Transferase (α-GST) following the administration of: • 4×2.0 g CHP per day, for 14 consecutive days (total daily dose=8.0 g CHP) • 4×3.0 g CHP per day, for 14 consecutive days (total daily dose=12.0 g CHP)
The P-value obtained was 0.0017, indicating a 99.8% that the decreased observed was not the result of chance. A one-sample two-sided t-test was used, using the data from day 0-day 17.

[2] = test system: patients with advanced cancer disease; assay: Efficacy, safety and Quality of Life of 25 clinical cases with advanced cancer treated with oral and intravenous CHP; type: in vivo, human
Description: Example 11—Study Title: Evaluation of the Efficacy, Safety and Quality of Life (QoL) of 25 Clinical Cases in Patients with Advanced Cancer Disease Treated with Oral and Intravenous Formulations of Cis-4-Hydroxy-L-Proline (CHP)
25 patients (15 female and 10 male) have been treated with oral and/or intravenous CHP: • Mean age was over 60 years with maximum of 82 and minimum of 36 years. • 15 Patients considered as “elderly patients”—60-82 years (60%) • Patients 50-60 years (20%) • No further demographic data were documented. • Complete clinical case documents have been prepared for each patient.

O=C(O)[C@@H]1C[C@H](O)CN1 [CHP, cis-4-hydroxy-L-proline]
Liver cell damage ([1]; multiple oral doses of CHP for 14 days): no effect of liver cell damage
α-GST levels in blood ([1]; oral 4×2.0 g or 4×3.0 g CHP per day for 14 days, P-value 0.0017, one-sample two-sided t-test, day 0-day 17): inhibits significantly; also recorded: highly significant
Tolerability of long-term treatment ([2]; 1-13 month, 2-22 gram/day CHP as monotherapy, 25 patients): well tolerated
Toxic side effects, adverse events ([2]; 25 patients with advanced cancer, CHP monotherapy): No adverse events or side effects occurred were clinically relevant; also recorded: no toxic side effects or serious adverse events
Healing ([2]; advanced cancer patients treated with CHP): In one case healing was achieved
Course of disease in most of the patients ([2]; advanced cancer, no progression, no ascites, no obstruction): quite long time of stable disease
